According to patent US20150119373A1, “NOVEL BETULINIC ACID DERIVATIVES AS HIV INHIBITORS” (HETERO RESEARCH FOUNDATION, priority 2012, published 2015):

Tests used:
[1] = test system: HIV-1 strain 92HT599; test: Antiviral activity: p24 estimation in MT2 cells infected with HIV-1 strain 92HT599; format: cell-based; details: Human immunodeficiency virus 1, MT2 cells, HIV-1 92HT599, ~96 hours, p24; for inhibition at 0.1 µM: 100 nM, read-out: Antiviral activity % inhibition 100 nM; for inhibition at 1 µM: 1000 nM, read-out: Antiviral activity % inhibition 1000 nM
How it was run: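 Infection of MT2 cells used 10 TCID50/30000 cells, with compound present at ≤1% DMSO for ~96 h. p24 in well aliquots was quantified by kit. Percent inhibition is relative to vehicle controls.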

[2] = Cyto-toxicity assay (MTT) in MT2 cells without virus; format: cell-based; details: human
Description: For cyto-toxicity assay the same amount of MT2 cells as in antiviral assay without virus was added to the 96 well plates. The cyto-toxicity was measured using MTT reagent in parallel with p24 estimation. The percent viability is calculated in comparison with vehicle control.

[3] = Single dose oral pharmacokinetic study in mice; format: in vivo; details: for AUC(0-inf) / Cmax / AUC(0-t) / half-life / Tmax: mouse, plasma; for half-life: read-out: t½ (converted)
How it was run: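 Mice or rats dosed orally at 30 mg/kg in a suitable vehicle (10 ml/kg). Retro-orbital blood on K3 EDTA at defined time points under light ether anaesthesia; plasma analysed by LC-MS-MS.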

[4] = Single dose oral pharmacokinetic study in rat; format: in vivo; details: plasma, Rat oral PK @30 mg/kg (Table 3); for half-life: read-out: t½ (converted)
Description: The test item was administered through oral route to animals (rat/mice) at 30 mg/kg dose in a suitable vehicle at 10 ml/kg dose volume. Blood samples (˜50 uL at each time point) were collected from retro-orbital plexus using K3 EDTA as anticoagulant in eppendorf tubes at defined time intervals under light ether anesthesia. The samples were centrifuged at 3500×g to separate plasma and stored at −80° C. until analysis.
Sample analysis: Test samples were analyzed using LC-MS-MS after developing fit-for-purpose method for each of test compound.

[5] = Mice oral PK @30 mg/kg (Table 4)
[6] = Mice oral PK @30 mg/kg (Table 4), read-out: AUC 0-t
[7] = Oral PK @ 30 mg/ kg dose in mice (Table 6)
[8] = Oral PK @ 30 mg/ kg dose in mice (Table 6), read-out: AUCt
[9] = Mice oral PK @30 mg/kg (Table 5)

Structure (SMILES) | inhibition at 0.1 µM [1] [%] | inhibition at 1 µM [1] [%] | viability at 100 nM [2] [%] | viability at 1000 nM [2] [%] | AUC(0-inf) [3, 5] [µg·h/mL] | Cmax [3, 5] [ng/mL] | AUC(0-t) [3, 6] [µg·h/mL] | half-life [3, 5] [h] | AUC(0-inf) [4] [µg·h/mL] | AUC(0-t) [4] [µg·h/mL] | Cmax [4] [ng/mL] | half-life [4] [h] | Tlast [3, 7] [h] | AUC(0-inf) [3, 7] [µg·h/mL] | Cmax [3, 7] [ng/mL] | Tmax [3, 7] [h] | AUC(0-t) [3, 8] [µg·h/mL] | Cmax [3, 9] [ng/mL] | Tmax [3, 9] [h] | AUC(0-t) ([3]; Mice oral PK @30 mg/kg (Table 5), read-out: AUC 0-t) [µg·h/mL]
C=C(C)[C@@H]1CC[C@]2(C(=O)N[C@@H]3C[C@H](c4nnc(C)o4)C3(C)C)CC[C@]3(C)[C@H](CC[C@@H]4[C@@]5(C)CC[C@H](OC(=O)CC(C)(C)C(=O)O)C(C)(C)[C@@H]5CC[C@]43C)[C@@H]12 [Example 11, 4-((1R,3aS,5aR,5bR,7aR,9S,11aR,11bR,13aR,13bR)-3a-((1R,3S)-2,2-dimethyl-3-(5-methyl-1,3,4-oxadiazol-2-yl)cyclobutylcarbamoyl)-5a,5b,8,8,11a-pentamethyl-1-(prop-1-en-2-yl)icosahydro-1H-cyclopenta[a]chrysen-9-yloxy)-2,2-dimethyl-4-oxo butanoicacid] | 100 | 100 | 96 | 98 | 138 | 11300 | 115 | 3.66 | 8.16 | 8.05 | 1970 | 3.66 |  |  |  |  |  |  |  | 
CC(C)(CC(=O)O[C@H]1CC[C@]2(C)[C@H]3CC[C@@H]4[C@H]5[C@H](C6(C)CC6)CC[C@]5(C(=O)N[C@@H]5C[C@H](C(=O)N6CCCCC6)C5(C)C)CC[C@@]4(C)[C@]3(C)CC[C@H]2C1(C)C)C(=O)O [Example 4, 4-((1R,3aS,5aR,5bR,7aR,9S,11aR,11bR,13aR,13bR)-3a-((1R,3S)-2,2-dimethyl-3-(piperidine-1-carbonyl)cyclobutylcarbamoyl)-5a,5b,8,8,11a-pentamethyl-1-(1-methylcyclopropyl)icosahydro-1H-cyclopenta[a]chrysen-9-yloxy)-2,2-dimethyl-4-oxobutanoicacid] | 98 | 98 | 82 | 86 | 155 | 9780 | 138 | 14.5 | 22.6 | 22.3 | 5920 | 4.44 |  |  |  |  |  |  |  | 
CC(C)(CC(=O)O[C@H]1CC[C@]2(C)[C@H]3CC[C@@H]4[C@H]5[C@H](C6(C)CC6)CC[C@]5(C(=O)N5CCOCC5)CC[C@@]4(C)[C@]3(C)CC[C@H]2C1(C)C)C(=O)O [Example 27, 2,2-dimethyl-4-oxo-4-(((1R,3aS,5aR,5bR,7aR,9S,11aR,1bR,13aR,13bR)-5a,5b,8,8,11a-pentamethyl-1-(1-methylcyclopropyl)-3a-(morpholine-4-carbonyl)icosahydro-1H-cyclopenta[a]chrysen-9-yl)oxy)butanoic acid] | 94 | 88 | 100 | 94 |  |  |  |  |  |  |  |  | 48 | 106 | 7000 | 3.5 | 101 |  |  | 
C=C(C)[C@@H]1CC[C@]2(C(=O)O)CC[C@]3(C)[C@H](CC[C@@H]4[C@@]5(C)CC[C@H](OC(=O)[C@H]6[C@@H](CC(=O)O)C6(C)C)C(C)(C)[C@@H]5CC[C@]43C)[C@@H]12 [Compound 1, (1R,3aS,5aR,5bR,7aR,9S,11aR,11bR,13aR,13bR)-9-((1S,3R)-3-(carboxymethyl)-2,2-dimethylcyclopropanecarbonyloxy)-5a,5b,8,8,11a-pentamethyl-1-(prop-1-en-2-yl)icosahydro-1H-cyclopenta[a]chrysene-3a-carboxylic acid] | 95 | 100 | 96 | 92 | 36.7 | 8790 | 35.9 | 6.23 | 3.23 | 3.12 | 1220 | 1.53 |  |  |  |  |  |  |  | 
CCN1CCN(C(=O)[C@]23CC[C@@H](C4(C)CC4)[C@@H]2[C@H]2CC[C@@H]4[C@@]5(C)CC[C@H](OC(=O)[C@H]6C[C@@H](C(=O)O)C6(C)C)C(C)(C)[C@@H]5CC[C@@]4(C)[C@]2(C)CC3)CC1 [Example 13, (1R,3S)-3-(((1R,3aS,5aR,5bR,7aR,9S,11aR,11bR,13aR,13bR)-3a-(4-ethylpiperazine-1-carbonyl)-5a,5b,8,8,11a-pentamethyl-1-(1-methylcyclopropyl)icosahydro-1H-cyclopenta[a]chrysen-9-yloxy)carbonyl)-2,2-dimethylcyclobutanecarboxylic acid] | 83 | 99 | 86 | 79 |  |  |  |  |  |  |  |  |  |  |  |  |  | 12000 | 20 | 456
CC1([C@@H]2CC[C@]3(C(=O)N4CCN(CCCN5CCOCC5)CC4)CC[C@]4(C)[C@H](CC[C@@H]5[C@@]6(C)CC[C@H](OC(=O)[C@H]7C[C@@H](C(=O)O)C7(C)C)C(C)(C)[C@@H]6CC[C@]54C)[C@@H]23)CC1 [Example 34] | 100 | 100 | 100 | 91 |  |  |  |  |  |  |  |  | 48 | 240 | 9200 | 6.5 | 214 |  |  | 
